In this experiment the target is Collagenase 3 (Homo sapiens, UniProt P45452). Kind of experiment: Inhibition of human recombinant MMP13 expressed in Escherichia coli.

The record followed here is BindingDB's records for doi:10.1016/j.bmc.2008.03.004 (Florida Atlantic University, 2009).

Where only a bound is given, the exact number is not on record here.

The IC50 is the point on the concentration scale where inhibition reaches its midpoint. Turning to `COc1cc(-n2nc(C)c3c2OC(=N)C(C#N)C3c2ccccc2)c(Cl)c(Br)c1O` (stereo unspecified) [6-amino-1-(3-bromo-2-chloro-4-hydroxy-5-methoxyphenyl)-3-methyl-4-phenyl-1,4-dihydropyrano[2,3-c]pyrazole-5-carbonitrile], the IC50 was above 40 µM.
